Here are results for 38 molecules from ChEMBL document CHEMBL4359816, “Discovery and Optimization of Quinolinone Derivatives as Potent, Selective, and Orally Bioavailable Mutant Isocitrate Dehydrogenase 1 (mIDH1) Inhibitors” (J Med Chem, 2019).

Series [1] in a line: Kinetic solubility of the compound. The class given is physicochemical. To be noted: read-out: Kinetic_solubility.
In series [2] the target is Isocitrate dehydrogenase [NADP] cytoplasmic (Homo sapiens, UniProt O75874, R132C). Description: Inhibition of human Myc-DDK-tagged IDH1 R132C mutant assessed as reduction in NADPH consumption pre-incubated for 15 mins followed by alpha-ketoglutarate substrate and NADPH addition after 45 mins by diaphorase and resazurin dye based assay.
Chain of Isocitrate dehydrogenase [NADP] cytoplasmic (O75874 2-414 R132C limits assumed): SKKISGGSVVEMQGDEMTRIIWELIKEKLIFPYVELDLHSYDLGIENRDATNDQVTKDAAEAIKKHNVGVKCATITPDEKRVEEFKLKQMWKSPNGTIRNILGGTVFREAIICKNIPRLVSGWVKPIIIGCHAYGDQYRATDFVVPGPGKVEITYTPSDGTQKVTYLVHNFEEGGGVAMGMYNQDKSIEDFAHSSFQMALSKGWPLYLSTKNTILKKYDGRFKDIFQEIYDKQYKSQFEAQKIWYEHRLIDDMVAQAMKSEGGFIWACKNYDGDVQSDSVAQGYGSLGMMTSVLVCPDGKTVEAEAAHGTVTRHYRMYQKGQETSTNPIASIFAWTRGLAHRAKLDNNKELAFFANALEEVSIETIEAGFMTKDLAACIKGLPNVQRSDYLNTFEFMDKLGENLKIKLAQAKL
Series [3] can be described thus: Metabolic stability in human liver microsomes assessed as compound remaining after 30 mins. Format: ADME, Microsome. To be noted: read-out: Stability.
Series [4] is described as follows: Metabolic stability in mouse liver microsomes assessed as compound remaining after 30 mins. Format: ADME, Microsome. To be noted: read-out: Stability.

Each structure is given as a SMILES string. Converted amounts (≈) assume the structure as drawn.

As to `COc1cc(NCc2cc3cc(Cl)c(OCCN(C)C)cc3[nH]c2=O)ccc1C#N`, the solubility kinetic in series [1] is 1 µM (≈ 0.427 µg/mL). Further, the IC50 in series [2] was determined as 6.25 µM.

Take `COc1cc(NCc2cc3cc(Cl)cc(OC)c3[nH]c2=O)ccc1C#N`: the solubility kinetic in series [1] is below 0.1 µM. The values for the remaining at 0.5 h in series [3] and in series [4] were 53% and 3.4%, respectively. In series [2], the IC50 is 88.6 µM.

For `CCOc1cc(NCc2cc3cc(Cl)ccc3[nH]c2=O)ccc1C#N`, the solubility kinetic in series [1] is below 0.1 µM. For the same molecule, the results for the remaining at 0.5 h in series [3] and in series [4] were 78% and 29%, respectively.

With `COc1cc(NCc2cc3cc(Br)ccc3[nH]c2=O)ccc1C#N`, in series [1], the solubility kinetic was 0.18 µM (≈ 0.0692 µg/mL). The figures for the remaining at 0.5 h in series [3] and in series [4] were 89% and 39%, respectively.

For the molecule `COc1cc(NCc2cc3cc(F)ccc3[nH]c2=O)ccc1C#N`, in series [1], the solubility kinetic came to 3.32 µM (≈ 1.07 µg/mL). The remaining at 0.5 h in series [3] stood at 81%; in series [4], 46%.

In the case of `COc1cc(NCc2cc3ccccc3[nH]c2=O)ccc1-n1cnnn1`, in series [1], the solubility kinetic turned out to be 0.93 µM (≈ 0.324 µg/mL). Further, the remaining at 0.5 h in series [3] came out at 88%; in series [4], 69.4%.

`Cc1nc(NC2(c3cc4cc(Cl)ccc4[nH]c3=O)CC2)ccc1C#N`: the solubility kinetic in series [1] is below 0.1 µM. In addition, the remaining at 0.5 h in series [3] was found to be 91%; in series [4], 77%.

Consider `N#Cc1ccc(NCc2cc3cc(Cl)ccc3[nH]c2=O)cc1F`, for which, in series [1], the solubility kinetic was below 0.1 µM. Moreover, the remaining at 0.5 h in series [3] was found to be 100%; in series [4], 49%.

For `N#Cc1ccc(NCc2cc3cc(Cl)ccc3[nH]c2=O)cc1`, the solubility kinetic in series [1] was 0.21 µM (≈ 0.065 µg/mL). Moreover, the values for the remaining at 0.5 h in series [3] and in series [4] were 65% and 53%, respectively.

For `COc1cc(NCc2cc3cc(Cl)ccc3[nH]c2=O)ccc1-n1cnnn1`, the solubility kinetic in series [1] is below 0.01 µM. In addition, the remaining at 0.5 h in series [3] worked out at 93.9%; in series [4], 89.9%.

`COc1ccc2[nH]c(=O)c(CNc3ccc(C#N)c(OC)c3)cc2c1`: the solubility kinetic in series [1] stood at 0.67 µM (≈ 0.225 µg/mL). Also, the values for the remaining at 0.5 h in series [3] and in series [4] were 21.6% and 10.5%, respectively.

Regarding `N#Cc1ccc(NCc2cc3cc(Cl)ccc3[nH]c2=O)nc1C(F)(F)F`, the solubility kinetic in series [1] was below 0.1 µM. For the same molecule, the remaining at 0.5 h in series [3] was 94%; in series [4], 100%.

On to `COc1cc(NCc2cc3cc(Cl)cc(OCc4ccccn4)c3[nH]c2=O)ccc1C#N`, for which the IC50 in series [2] stood at 3.48 µM.

Regarding `COc1cc(NCc2cc3cc(Cl)c(OCc4cc(C)n(C)n4)cc3[nH]c2=O)ccc1C#N`, the solubility kinetic in series [1] was below 0.01 µM. Also, the remaining at 0.5 h in series [3] stood at 32.7%; in series [4], 52.7%. Besides, in series [2], the IC50 was determined as 0.317 µM.

Regarding `COc1cc(NCc2cc3cc(Cl)c(OC4CCN(C)CC4)cc3[nH]c2=O)ccc1C#N`, the solubility kinetic in series [1] is 0.41 µM (≈ 0.186 µg/mL). For the same molecule, the figures for the remaining at 0.5 h in series [3] and in series [4] were 4.3% and 78.8%, respectively. Further, in series [2], the IC50 was determined as 5.1 µM.

In the case of `COc1cc(NCc2cc3cc(C(F)(F)F)ccc3[nH]c2=O)ccc1C#N`, in series [1], the solubility kinetic was below 0.1 µM. For the same molecule, the results for the remaining at 0.5 h in series [3] and in series [4] were 76% and 89%, respectively.

In the case of `N#Cc1ccc(NCc2cc3cc(Cl)ccc3[nH]c2=O)nc1`, in series [1], the solubility kinetic worked out at 0.42 µM (≈ 0.131 µg/mL). Besides, the results for the remaining at 0.5 h in series [3] and in series [4] were 91% and 75%, respectively.

Regarding `N#Cc1ccc(NCc2cc3cc(Cl)ccc3[nH]c2=O)cc1C(F)(F)F`, the solubility kinetic in series [1] is below 0.1 µM. Besides, the remaining at 0.5 h in series [3] and in series [4] was 100% in each case.

In the case of `COc1cc(NCc2cc3cc(Cl)ccc3[nH]c2=O)ccc1S(C)(=O)=O`, the solubility kinetic in series [1] was determined as 32.5 µM (≈ 12.8 µg/mL). Further, the remaining at 0.5 h was determined as 100% in series [3] and 81% in series [4].

As to `Cc1ccnc(NCc2cc3cc(Cl)ccc3[nH]c2=O)c1`, the solubility kinetic in series [1] was determined as 0.88 µM (≈ 0.264 µg/mL). Also, the remaining at 0.5 h in series [3] was 76%; in series [4], 0.6%.

Turning to `COc1cc(NCc2cc3cc(C)ccc3[nH]c2=O)ccc1C#N`, the solubility kinetic in series [1] amounted to 1.33 µM (≈ 0.425 µg/mL). The remaining at 0.5 h in series [3] was found to be 1.2%; in series [4] it was 0.49%.

In the case of `Cc1nc(N[C@H](C)c2cc3cc(Cl)ccc3[nH]c2=O)ccc1C#N`, the solubility kinetic in series [1] was found to be 8 µM (≈ 2.71 µg/mL). Besides, the remaining at 0.5 h in series [3] stood at 100%; in series [4] it was 89%.

Regarding `O=c1[nH]c2ccc(Cl)cc2cc1CNc1ccc(-c2csnn2)cc1`, the remaining at 0.5 h in series [3] is 82%; in series [4], 57%.

Consider `N#Cc1ccc(NCc2cc3cc(Cl)ccc3[nH]c2=O)cc1O`, for which the solubility kinetic in series [1] turned out to be 20.9 µM (≈ 6.81 µg/mL). The values for the remaining at 0.5 h in series [3] and in series [4] were 75% and 85%, respectively.

Take `Cc1nnnn1-c1ccc(NCc2cc3cc(Cl)ccc3[nH]c2=O)cc1`: the solubility kinetic in series [1] turned out to be 1.2 µM (≈ 0.44 µg/mL). The remaining at 0.5 h in series [3] is 100%; in series [4] it was 85%.

Turning to `COc1cc(NCc2cc3cc(Cl)ccc3n(C)c2=O)ccc1-n1cnnn1`, the solubility kinetic in series [1] is below 0.01 µM. Also, the values for the remaining at 0.5 h in series [3] and in series [4] were 63.7% and 22%, respectively.

For the molecule `COc1cc(NCc2cc3cc(C)ccc3[nH]c2=O)ccc1-n1cnnn1`, the solubility kinetic in series [1] is below 0.01 µM. Further, the remaining at 0.5 h in series [3] is 30.8%; in series [4], 42.3%.

Turning to `COc1cc(NCc2cc3cc(C(C)(C)C)ccc3[nH]c2=O)ccc1C#N`, in series [1], the solubility kinetic is below 0.1 µM. The remaining at 0.5 h turned out to be 6% in series [3] and 3.9% in series [4].

For `COc1cc(C#N)ccc1NCc1cc2cc(Cl)ccc2[nH]c1=O`, the solubility kinetic in series [1] was below 0.1 µM. For the same molecule, the remaining at 0.5 h came to 79% in series [3] and 2.1% in series [4].

Take `N#Cc1ccc(NCc2cc3cc(Cl)ccc3[nH]c2=O)cc1OC(F)(F)F`: in series [1], the solubility kinetic is below 0.1 µM. Besides, the remaining at 0.5 h in series [3] and in series [4] was 72% each time.

`COc1cc(NCc2cc3ccccc3[nH]c2=O)ccc1C#N`: the solubility kinetic in series [1] worked out at 6.13 µM (≈ 1.87 µg/mL). For the same molecule, the remaining at 0.5 h turned out to be 35% in series [3] and 4.6% in series [4].

Regarding `Cc1cc(NCc2cc3cc(Cl)ccc3[nH]c2=O)ncc1C#N`, the solubility kinetic in series [1] came out at 0.8 µM (≈ 0.26 µg/mL). Moreover, the remaining at 0.5 h in series [3] came to 99%; in series [4], 75%.

Take `O=c1[nH]c2ccc(Cl)cc2cc1CNc1ccc(-n2ccnc2)cc1`: the solubility kinetic in series [1] was 1.57 µM (≈ 0.551 µg/mL). Moreover, the figures for the remaining at 0.5 h in series [3] and in series [4] were 98% and 93%, respectively.

Regarding `COc1cc(NCc2cc3cc(C)c(C)cc3[nH]c2=O)ccc1-n1cnnn1`, the solubility kinetic in series [1] worked out at 0.04 µM (≈ 0.0151 µg/mL). The values for the remaining at 0.5 h in series [3] and in series [4] were 17.6% and 27.9%, respectively.

As to `COc1cc(NCc2cc3cc(Cl)ccc3[nH]c2=O)cc(OC)c1C#N`, the solubility kinetic in series [1] is below 0.1 µM. In addition, the remaining at 0.5 h in series [3] worked out at 80%; in series [4], 59%.

Turning to `COc1cc(NCc2cc3ccc(C)cc3[nH]c2=O)ccc1-n1cnnn1`, in series [1], the solubility kinetic was below 0.01 µM. Moreover, the remaining at 0.5 h in series [3] amounted to 9.6%; in series [4], 17.8%.

Take `Cc1nc(NC(C)(C)c2cc3cc(Cl)ccc3[nH]c2=O)ccc1C#N`: the solubility kinetic in series [1] was below 0.1 µM. Besides, the values for the remaining at 0.5 h in series [3] and in series [4] were 81% and 67%, respectively.

Regarding `Cc1cc(NCc2cc3cc(Cl)ccc3[nH]c2=O)ccc1C#N`, the solubility kinetic in series [1] is below 0.1 µM. Also, the values for the remaining at 0.5 h in series [3] and in series [4] were 75% and 49%, respectively.
